From PMC10804372, “Degradation by Design: New Cyclin K Degraders from Old CDK Inhibitors” (ACS Chemical Biology, 2024)

Key:
HEK293T cells = assay: Proteome-wide quantitation by mass spectrometry (TMT); format: cell-based, human; settings: for log2FC compound 21: 1 uM 2h vs DMSO
Cyclin K [1] = assay: Cyclin K degradation concentration-response (DC50, DMax) by Western blot; format: cell-based, human; settings: for DMax (%) / DC50: HEK293T, Western blot quantification, 3 biological repeats; for DC50: read-out: CycK DC50
Experimental: With the aim of comparing the degradation ability of the new analogues, we derived DC50 values by using Western blotting (Table 5). […] This approach has been previously used to improve the potency of BCL6 degraders.[33] We therefore also measured CDK12 affinity using the KINOMEscan binding assay (Table 5).[34]
(§1) HEK293T human […] kidney cells were cultured in DMEM (Gibco/Life Technologies), containing 25 mM D-glucose, 4 mM L-glutamine, and 1 mM sodium pyruvate, and supplemented with 10% (v/v) FBS and 1% nonessential amino acids (Gibco/Life Technologies). Cells were incubated at 37 °C in a humidified atmosphere with 5% CO2.
(§2) Cells were washed with PBS and lysed (20 mM HEPES pH 7.5, 10% glycerol, 0.4 M KCl, 0.4% Triton X-100, 15 mM EDTA, and 1× protease and phosphatase inhibitors). The insoluble fraction was removed by centrifugation. Protein quantification was performed using a Bradford assay and compared to a BSA calibration curve. Equal amounts of lysates were run on SDS–PAGE 4–12% Bis–Tris Protein Gels (NuPAGE, Thermo Fisher Scientific) and then transferred onto Immobilon-P PVDF Membrane (Millipore, IPVH00010) using a Mini Trans-Blot Cell (Bio-Rad, 1703930). The membranes were blocked with 5% bovine albumin serum (BSA) in Tris-buffered saline with Tween 20 (TBS-T) and incubated with primary antibodies overnight at 4 °C. The membranes were washed three times with TBS-T and incubated with HRP-conjugated secondary antibody (BioRad) for 2 h. Membranes were washed again three times with TBS-T before being developed using Pierce ECL Western Blotting Substrate (Thermo, 32106) and visualized using LI-COR. Antibodies were purchased from Cell Signaling Technology: anti-GAPDH (D4C6R) and anti-DDB1 (D4C8) or Bethyl Laboratories: anti-Cyclin K (A301-939A). The following HRP-linked secondary antibodies were used by dilution in 5% BSA/TBS-T: antirabbit IgG (BioRad, 5213–2504) and antimouse IgG (BioRad, 103005).
(§3) Unedited blots containing the marker lane are available on request. Western blots were quantified using ImageJ. Cyclin K levels were normalized using GAPDH as a loading control. DC50 values were calculated from concentration–response curves using nonlinear regression fit to a 4-parameter curve by GraphPad Prism.

CDK12 = target: T1, CDK12 (Homo sapiens, UniProt Q9NYV4); assay: KINOMEscan binding assay (Eurofins DiscoverX); settings: KINOMEscan
T1 construct: purchased Eurofins DiscoverX (KINOMEscan service)
T1 sequence (Q9NYV4 whole entry): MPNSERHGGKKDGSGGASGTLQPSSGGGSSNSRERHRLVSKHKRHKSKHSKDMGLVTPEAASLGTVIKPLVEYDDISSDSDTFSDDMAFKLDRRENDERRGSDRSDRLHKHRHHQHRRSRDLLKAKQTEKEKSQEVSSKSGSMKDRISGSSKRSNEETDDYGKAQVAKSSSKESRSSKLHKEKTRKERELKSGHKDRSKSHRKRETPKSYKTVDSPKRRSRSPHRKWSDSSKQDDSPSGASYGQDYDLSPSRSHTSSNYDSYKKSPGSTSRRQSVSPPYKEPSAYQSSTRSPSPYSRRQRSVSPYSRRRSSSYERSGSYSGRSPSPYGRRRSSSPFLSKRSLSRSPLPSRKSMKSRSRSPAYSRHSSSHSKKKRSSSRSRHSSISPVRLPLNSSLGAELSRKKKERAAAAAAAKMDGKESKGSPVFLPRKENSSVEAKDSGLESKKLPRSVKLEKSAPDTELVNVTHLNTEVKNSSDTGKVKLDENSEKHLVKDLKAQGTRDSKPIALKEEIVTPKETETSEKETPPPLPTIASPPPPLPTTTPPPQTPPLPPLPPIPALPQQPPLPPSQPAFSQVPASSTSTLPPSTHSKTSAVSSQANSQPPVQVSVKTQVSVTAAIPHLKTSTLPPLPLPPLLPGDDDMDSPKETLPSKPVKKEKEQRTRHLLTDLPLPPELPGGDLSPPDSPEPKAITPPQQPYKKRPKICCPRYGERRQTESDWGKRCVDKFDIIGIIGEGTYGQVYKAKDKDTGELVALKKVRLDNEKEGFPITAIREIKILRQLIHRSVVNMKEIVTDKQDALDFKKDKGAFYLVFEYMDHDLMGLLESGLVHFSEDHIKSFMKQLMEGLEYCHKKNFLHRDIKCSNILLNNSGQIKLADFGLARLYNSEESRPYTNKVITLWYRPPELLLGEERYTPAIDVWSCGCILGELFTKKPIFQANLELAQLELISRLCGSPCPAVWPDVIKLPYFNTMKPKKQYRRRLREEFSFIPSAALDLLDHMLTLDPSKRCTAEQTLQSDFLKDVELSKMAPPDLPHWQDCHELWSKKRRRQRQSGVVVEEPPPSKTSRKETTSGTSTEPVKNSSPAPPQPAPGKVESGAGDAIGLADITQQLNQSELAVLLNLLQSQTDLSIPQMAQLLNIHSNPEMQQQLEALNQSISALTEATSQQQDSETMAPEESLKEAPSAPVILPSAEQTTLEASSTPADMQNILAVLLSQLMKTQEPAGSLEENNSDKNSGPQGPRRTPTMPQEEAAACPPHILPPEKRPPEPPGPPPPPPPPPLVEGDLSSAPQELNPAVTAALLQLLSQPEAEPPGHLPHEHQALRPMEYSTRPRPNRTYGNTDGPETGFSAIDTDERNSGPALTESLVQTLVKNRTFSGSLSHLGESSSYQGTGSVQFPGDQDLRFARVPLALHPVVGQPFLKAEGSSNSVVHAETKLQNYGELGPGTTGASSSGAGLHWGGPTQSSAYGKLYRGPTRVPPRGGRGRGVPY

PAMPA permeability = format: in vitro ADME; settings: for Papp: pH 7.4, PAMPA, pH7.4, read-out: pH7.4 Papp x 10^-6
Cyclin K [2] = assay: Cyclin K levels by Western blot after single-concentration treatment; format: cell-based, human; settings: HEK293T cells, 1 μM for 2 h; for cyclin K degradation: Western blot; for Remaining Cyclin K (%): quantified from Western blots, mean ± SD, three independent experiments
Experimental: as §1, §2, §3

CDK12 / DDB1 = system: CDK12 / DDB1; design: method as in PMID 32494016; settings: in vitro; cited from earlier work
[3] = design: method as in PMID 32494016; settings: after 5 h of treatment; cited from earlier work
CDK5 = settings: cited from earlier work
CDK1 = settings: cited from earlier work
CDK9 = settings: cited from earlier work

Row | DC50 (Cyclin K [1]) | Kd (CDK12) | Papp (PAMPA permeability) | Structure (SMILES) | DMax (%) (Cyclin K [1]) | cyclin K degradation (Cyclin K [2]) | Remaining Cyclin K (%) (Cyclin K [2]) | also measured
1 | 32 nM | 280 nM | 40.2 ×10⁻⁶ cm/s | CC[C@H](CO)Nc1nc(NCc2ccc(C3=CCOCC3)cc2)c2ncn(C(C)C)c2n1 [compound 21] | >95% | complete degradation comparable to CR8 | 1 ± 1% | number of proteins showing at least a −0.5 log2 fold change (HEK293T cells; HEK293T, 1 μM, 2 h treatment): six; cyclin K log2 fold decrease (HEK293T cells; HEK293T, 1 μM, 2 h vs DMSO): 2.47 log2 fold; log2FC compound 21 (HEK293T cells; protein CBX6): -0.5911; log2FC compound 21 (HEK293T cells; protein CCNK (Cyclin-K)): -2.4569; log2FC compound 21 (HEK293T cells; protein CDK13): -0.9121; log2FC compound 21 (HEK293T cells; protein FYTTD1): -0.5054; log2FC compound 21 (HEK293T cells; protein HES1): 0.4216; PAMPA permeability (PAMPA permeability): comparable permeabilities
2 | 199 nM | 640 nM | 33.7 ×10⁻⁶ cm/s | CC[C@H](CO)Nc1nc(NCc2ccc(-c3ccco3)cc2)c2ncn(C(C)C)c2n1 [compound 29] | >95% | complete degradation | 3 ± 2% | fold decrease in degradation ability versus pyridine counterpart (Cyclin K [1]; furan analogues vs 1 (CR8), 36, 40): 4–8 fold
3 | […] |  | 45.4 ×10⁻⁶ cm/s | CC[C@H](CO)Nc1nc(NCc2ccc(-c3ccccn3)cc2)c2ncn(C(C)C)c2n1 [compound 1, reference compound] | […] |  | 1 ± 1% | stabilization of the CDK12-DDB1 interaction compared to apo-form (CDK12 / DDB1): 1000 fold; number of other proteins depleted by at least twofold [3]: […]
4 |  |  |  | CCc1cnn2c(NCc3ccc[n+]([O-])c3)cc(N3CCCC[C@H]3CCO)nc12 [dinaciclib] |  |  |  | activity at CDK5 (CDK5): sub-μM activity; activity at CDK1 (CDK1): sub-μM activity
5 | 18 nM | 86 nM | < 0.2 ×10⁻⁶ cm/s | CC[C@H](CO)Nc1nc(NCc2ccc(-c3cc(=O)cc[nH]3)cc2)c2ncn(C(C)C)c2n1 [compound 15] | >95% | total loss of degradation ability | 89 ± 11% | 
6 |  |  |  | CC[C@H](CO)Nc1nc(NCc2ccccc2)c2ncn(C(C)C)c2n1 [compound 2, reference compound] |  |  | 99 ± 1% | activity at CDK9 (CDK9): sub-μM activity
